In brackets after ≈: the same amount, converted by molar mass. Activity calls are given as the source filed them. No cut-off for these calls is given here.
Key:
Staphylococcus aureus [1] = experiment: Antibacterial against methicillin resistant Staphylococcus aureus ATCC 43300 assessed as inhibition of bacterial growth by broth microdilution method; type: functional; settings: time 24 hrs
Escherichia coli [2] = experiment: Inhibition of Escherichia coli DNA topoisomerase-IV assessed as residual activity at 10 uM by relaxation plate assay relative to control
MCF7 = experiment: Cytotoxicity against human MCF7 cells assessed as cell viability at 50 uM incubated for 72 hrs by CellTiter 96 aqueous one solution reagent based MTS assay relative to control; type: functional; settings: read-out: Activity
Staphylococcus aureus [3] = experiment: Antibacterial activity against Staphylococcus aureus ATCC 29213 assessed as inhibition of bacterial growth by broth microdilution method; type: functional
[4] = target: T1, DNA topoisomerase 2-alpha (Homo sapiens, UniProt P11388); experiment: (§1) Inhibition of human DNA topoisomerase 2-alpha using linear pBR322 as substrate assessed as conversion of NADH to NAD+ by measuring residual activity at 40 uM preincubated for 10 to 15 mins in presence of pyruvate kinase/lactate dehydrogenase mix followed by ATP addition and measured after 30 mins by ATPase assay relative to control; settings: time 40-55 min
T1 sequence (P11388 whole entry): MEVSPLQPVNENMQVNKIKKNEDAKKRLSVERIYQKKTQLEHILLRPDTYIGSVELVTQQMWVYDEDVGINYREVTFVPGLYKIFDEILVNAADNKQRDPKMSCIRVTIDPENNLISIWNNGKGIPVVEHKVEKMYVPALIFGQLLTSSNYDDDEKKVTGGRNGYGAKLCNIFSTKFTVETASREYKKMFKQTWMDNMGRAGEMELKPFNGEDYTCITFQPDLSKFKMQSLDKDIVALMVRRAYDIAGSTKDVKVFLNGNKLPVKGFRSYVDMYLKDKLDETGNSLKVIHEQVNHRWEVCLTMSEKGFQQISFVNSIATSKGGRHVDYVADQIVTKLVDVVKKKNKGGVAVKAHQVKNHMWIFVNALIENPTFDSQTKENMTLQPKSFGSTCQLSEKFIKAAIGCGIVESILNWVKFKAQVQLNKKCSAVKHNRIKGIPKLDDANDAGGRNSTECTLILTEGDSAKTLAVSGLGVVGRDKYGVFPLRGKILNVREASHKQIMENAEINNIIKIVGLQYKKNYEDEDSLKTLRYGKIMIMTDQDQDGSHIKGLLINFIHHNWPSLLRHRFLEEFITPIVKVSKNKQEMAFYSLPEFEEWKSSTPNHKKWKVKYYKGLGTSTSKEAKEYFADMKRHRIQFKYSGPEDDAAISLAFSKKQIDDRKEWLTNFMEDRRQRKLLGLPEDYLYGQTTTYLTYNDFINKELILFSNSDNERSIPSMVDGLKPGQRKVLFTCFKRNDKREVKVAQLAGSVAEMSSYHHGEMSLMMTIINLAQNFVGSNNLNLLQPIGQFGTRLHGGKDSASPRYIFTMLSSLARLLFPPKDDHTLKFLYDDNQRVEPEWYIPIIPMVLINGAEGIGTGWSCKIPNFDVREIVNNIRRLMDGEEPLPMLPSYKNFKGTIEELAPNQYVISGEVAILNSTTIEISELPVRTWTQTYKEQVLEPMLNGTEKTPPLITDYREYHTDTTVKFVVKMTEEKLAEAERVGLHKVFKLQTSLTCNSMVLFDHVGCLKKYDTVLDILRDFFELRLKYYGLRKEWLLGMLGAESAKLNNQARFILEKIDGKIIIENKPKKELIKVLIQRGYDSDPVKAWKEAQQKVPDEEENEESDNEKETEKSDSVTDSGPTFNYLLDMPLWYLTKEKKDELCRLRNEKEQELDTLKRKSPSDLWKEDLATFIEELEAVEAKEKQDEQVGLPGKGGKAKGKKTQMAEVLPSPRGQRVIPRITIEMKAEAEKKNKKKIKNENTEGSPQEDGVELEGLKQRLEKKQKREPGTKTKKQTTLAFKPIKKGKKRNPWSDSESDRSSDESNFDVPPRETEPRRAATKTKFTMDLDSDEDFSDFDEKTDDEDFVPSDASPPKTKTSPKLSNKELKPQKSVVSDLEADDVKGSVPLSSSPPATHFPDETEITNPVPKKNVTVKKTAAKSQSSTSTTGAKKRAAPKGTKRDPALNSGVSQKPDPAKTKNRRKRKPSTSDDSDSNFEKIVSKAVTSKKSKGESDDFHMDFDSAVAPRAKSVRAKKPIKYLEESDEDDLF

Escherichia coli [5] = experiment: Antibacterial activity against Escherichia coli ATCC 25922 assessed as inhibition of bacterial growth by broth microdilution method; type: functional
Enterococcus faecium = experiment: Antibacterial activity against vancomycin-resistant Enterococcus faecium ATCC 700221 assessed as inhibition of bacterial growth by broth microdilution method; type: functional
DNA gyrase = DNA gyrase (Escherichia coli, UniProt P0AES4+P0AES6); experiment: Inhibition of Escherichia coli DNA gyrase by supercoiling plate assay; type: protein-complex assay
Pseudomonas aeruginosa = experiment: Antibacterial activity against Pseudomonas aeruginosa ATCC 27853 assessed as inhibition of bacterial growth by broth microdilution metho; type: functional
Staphylococcus aureus [6] = experiment: Drug resistance, ratio of MIC for methicillin-resistant Staphylococcus aureus ATCC 43300 measured after 8 passages to MIC for methicillin-resistant Staphylococcus aureus during first exposure; type: functional
Staphylococcus aureus [7] = experiment: Antibacterial activity against methicillin resistant Staphylococcus aureus ATCC 43300 assessed as post antibiotic effect at 8 times of MIC incubated for 1 hrs and measured after 8 hrs; type: functional; settings: time 9 hrs
Staphylococcus aureus [8] = experiment: Bactericidal activity against methicillin resistant Staphylococcus aureus ATCC 43300 at 8 times of MIC measured a 6 to 24 hrs by time-kill kinetic assay; type: functional, organism-based; settings: time 6-24 hrs
Staphylococcus aureus [9] = experiment: Drug resistance, ratio of MIC for methicillin-resistant Staphylococcus aureus ATCC 43300 measured after 10 passages to MIC for methicillin-resistant Staphylococcus aureus during first exposure; type: functional
[10] = target: DNA gyrase (Staphylococcus aureus) (UniProt P0A0K8+P20831); experiment: Inhibition of Staphylococcus aureus DNA gyrase assessed as residual activity at 0.1 uM by supercoiling plate assay relative to control; type: protein-complex assay
Sequence of DNA gyrase (Staphylococcus aureus) (P0A0K8 2-644 limits assumed): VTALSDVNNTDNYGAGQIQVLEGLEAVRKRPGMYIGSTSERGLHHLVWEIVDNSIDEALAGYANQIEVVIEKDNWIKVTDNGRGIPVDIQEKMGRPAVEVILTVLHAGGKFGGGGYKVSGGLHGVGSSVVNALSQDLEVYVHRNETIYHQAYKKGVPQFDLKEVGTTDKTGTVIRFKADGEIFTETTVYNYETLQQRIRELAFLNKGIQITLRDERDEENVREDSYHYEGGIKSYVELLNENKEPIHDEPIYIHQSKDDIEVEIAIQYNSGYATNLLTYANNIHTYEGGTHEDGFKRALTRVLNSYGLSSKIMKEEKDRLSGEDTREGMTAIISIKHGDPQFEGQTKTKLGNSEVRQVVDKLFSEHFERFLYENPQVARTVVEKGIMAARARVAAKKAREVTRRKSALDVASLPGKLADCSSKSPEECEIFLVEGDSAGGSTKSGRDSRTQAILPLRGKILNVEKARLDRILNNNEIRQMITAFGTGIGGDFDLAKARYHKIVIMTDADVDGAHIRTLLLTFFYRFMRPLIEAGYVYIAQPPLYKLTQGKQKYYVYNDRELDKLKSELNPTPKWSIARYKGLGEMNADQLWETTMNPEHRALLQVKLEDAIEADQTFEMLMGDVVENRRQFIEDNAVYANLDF
Sequence of DNA gyrase (Staphylococcus aureus) (P20831 whole entry partner): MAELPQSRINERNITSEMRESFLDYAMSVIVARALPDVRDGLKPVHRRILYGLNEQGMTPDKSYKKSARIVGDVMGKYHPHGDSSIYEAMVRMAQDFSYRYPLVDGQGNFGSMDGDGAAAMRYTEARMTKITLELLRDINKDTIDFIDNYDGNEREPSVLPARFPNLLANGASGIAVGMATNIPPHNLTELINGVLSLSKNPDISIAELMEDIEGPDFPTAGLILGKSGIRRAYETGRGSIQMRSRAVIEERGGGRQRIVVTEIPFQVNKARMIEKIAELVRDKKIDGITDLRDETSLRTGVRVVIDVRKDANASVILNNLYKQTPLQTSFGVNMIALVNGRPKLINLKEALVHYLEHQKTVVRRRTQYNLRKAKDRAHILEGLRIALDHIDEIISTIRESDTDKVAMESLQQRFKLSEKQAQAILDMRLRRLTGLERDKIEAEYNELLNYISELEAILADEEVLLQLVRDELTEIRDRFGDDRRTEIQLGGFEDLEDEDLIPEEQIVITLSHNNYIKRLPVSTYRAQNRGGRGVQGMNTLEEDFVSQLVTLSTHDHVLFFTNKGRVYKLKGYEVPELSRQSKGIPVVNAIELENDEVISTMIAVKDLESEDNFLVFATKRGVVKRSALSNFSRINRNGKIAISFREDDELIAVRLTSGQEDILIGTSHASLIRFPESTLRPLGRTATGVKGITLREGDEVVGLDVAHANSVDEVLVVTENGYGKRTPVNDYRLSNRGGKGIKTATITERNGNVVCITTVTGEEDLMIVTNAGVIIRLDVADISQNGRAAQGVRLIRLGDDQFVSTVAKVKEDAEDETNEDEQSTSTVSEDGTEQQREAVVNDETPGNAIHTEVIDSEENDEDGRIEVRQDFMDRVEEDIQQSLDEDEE

[11] = target: T1, DNA topoisomerase 2-alpha; experiment: as §1, with “100” for “40”; settings: time 40-55 min
[12] = Inhibition of Escherichia coli DNA topoisomerase-IV relaxation plate assay
Staphylococcus aureus [13] = experiment: Antibacterial activity against methicillin resistant Staphylococcus aureus ATCC 43300 assessed as assessed as bacterial killing incubated for 24 hrs by time-kill kinetics assay; type: functional, organism-based
Enterobacter cloacae = experiment: Antibacterial activity against Enterobacter cloacae subsp. cloacae ATCC 13047 assessed as inhibition of bacterial growth by broth microdilution method; type: functional
Acinetobacter baumannii = experiment: Antibacterial activity against Acinetobacter baumannii ATCC 17978 assessed as inhibition of bacterial growth by broth microdilution method; type: functional
Klebsiella pneumoniae = experiment: Antibacterial activity against Klebsiella pneumoniae ATCC 10031 assessed as inhibition of bacterial growth by broth microdilution method; type: functional
Enterococcus faecalis = experiment: Antibacterial activity against Enterococcus faecalis ATCC 29212 assessed as inhibition of bacterial growth by broth microdilution method; type: functional
Staphylococcus aureus [14] = experiment: Antibacterial against vancomycin-intermediate Staphylococcus aureus ATCC 700699 assessed as inhibition of bacterial growth by broth dilution method; type: functional
Staphylococcus aureus [15] = experiment: Bactericidal activity against Staphylococcus aureus ATCC 43300 at 8 times MIC measured after 8 hrs by time kill assay; type: functional, organism-based
[16] = target: DNA gyrase (Escherichia coli) (UniProt P0AES6+P0AES4); experiment: Inhibition of Escherichia coli DNA gyrase assessed as residual activity at 1 uM by supercoiling plate assay relative to control; type: protein-complex assay
[17] = target: T1, DNA topoisomerase 2-alpha; experiment: as §1, with “10” for “40”; settings: time 40-55 min

| SMILES | MIC (Staphylococcus aureus [1]) [µg/mL] | Activity (Escherichia coli [2]) [%] | viability at 50 µM (MCF7) [%] | MIC (Staphylococcus aureus [3]) [µg/mL] | Activity [4] [%] | MIC (Escherichia coli [5]) [µg/mL] | MIC (Enterococcus faecium) [µg/mL] | IC50 (DNA gyrase) [nM] | MIC (Pseudomonas aeruginosa) [µg/mL] | Ratio (Staphylococcus aureus [6]) | PAE (Staphylococcus aureus [7]) [h] | Ratio (Staphylococcus aureus [9]) | Activity [11] [%] | other results |
| --- | --- | --- | --- | --- | --- | --- | --- | --- | --- | --- | --- | --- | --- | --- |
| Cc1[nH]c(C(=O)Nc2ccc(-c3noc(=O)[nH]3)cc2N2CCOCC2)c(Cl)c1Cl | 2 (≈ 4.56 µM) | 76 | 101 | 4 (≈ 9.13 µM) | 119 | > 32 | 0.5 (≈ 1.14 µM) | 13 | > 32 | – | – | – | – | – |
| O=C(O)c1cn(C2CC2)c2cc(N3CCNCC3)c(F)cc2c1=O [CIPROFLOXACIN] | – | – | – | – | – | – | – | – | – | 8 | 2 | 16 | – | Activity (Staphylococcus aureus [8]): Active |
| Cc1[nH]c(C(=O)Nc2ccc(-n3nn[nH]c3=O)cc2N2CCC(NC(=O)OC(C)(C)C)CC2)c(Cl)c1Cl | – | 63 | – | – | – | – | – | 33 | – | – | – | – | 34 | Activity [10]: 65% |
| Cc1[nH]c(C(=O)Nc2ccc(-c3noc(=O)[nH]3)cc2NC2CCN(C(=O)OC(C)(C)C)CC2)c(Cl)c1Cl | 0.5 (≈ 0.907 µM) | – | 64 | 2 (≈ 3.63 µM) | – | > 64 | 0.063 (≈ 0.114 µM) | 6.92 | > 64 | 4 | 2 | 128 | 98 | IC50 [12]: 1680 nM; Activity (Staphylococcus aureus [13]): Dose-Dependent Effect; MIC (Enterobacter cloacae): > 64 µg/mL; MIC (Acinetobacter baumannii): > 64 µg/mL; MIC (Klebsiella pneumoniae): > 64 µg/mL; MIC (Enterococcus faecalis): < 0.031 µg/mL; MIC (Staphylococcus aureus [14]): < 0.031 µg/mL; Activity (Staphylococcus aureus [15]): Active |
| Cc1nnc(-c2ccc(NC(=O)c3[nH]c(C)c(Cl)c3Cl)c(OC(C)C)c2)o1 | – | – | – | > 64 | 115 | > 64 | – | – | > 64 | – | – | – | – | Activity [16]: 95% |
| Cc1[nH]c(C(=O)Nc2ccc(-c3nnn[nH]3)cc2N2CCCC(CNC(=O)OC(C)(C)C)C2)c(Cl)c1Cl (stereo not drawn) | – | – | – | – | – | – | – | 280 | – | – | – | – | – | Activity [17]: 95% |
